Source: article PMC9360078, “Pre-clinical 2D and 3D toxicity response to a panel of nanomaterials; comparative assessment of NBM-induced liver toxicity” (Drug Delivery and Translational Research, 2022)

Tests used:
HepG2 2D monolayer = assay: Sensitivity to hepatotoxins, CellTiter-Glo ATP viability, 2D monolayer; assay type: cell-based; settings: Homo sapiens, 24-h acute dosing, estimated from graphs
Protocol: (§1) For 2D monolayers, 10,000 HepG2 cells were seeded on 96-well plates (Thermo Fisher, Ireland). Cells were left to adhere for 24 h before being treated with chosen NBMs for desired timepoints. For HepG2 spheroid formation, cells were seeded in CellStar® 96 well ultra-low attachment (ULA) cell-repellent plates (Grenier, BioOne, UK) at a density of 1000 cells per well in 100 µl medium (Fig. 1). After 3 days of incubation at 37 °C with 5% CO2, medium was changed with care taken not to disturb the spheroids.
(§2) Sensitivity of spheroid cultures to a panel of common hepatotoxins was tested using a protocol detailed previously in works from Gaskell et al. and Bell et al. and using information listed in the MIP-DILI training set. The hepatotoxins included acetaminophen, diclofenac, trovafloxacin and fialuridine. HepG2 spheroids grown for 3 days and 10 days were exposed to the hepatotoxins, diluted in cell culture medium, for 4 days, with an addition dose administered 2 days after the first exposure. Concentrations tested for each compound were the following: • Acetaminophen: 10000, 5000, 1250, 625, 300, 150, 75 µg/ml • Diclofenac: 400, 200, 100, 50, 25, 12.5, 6.25 µg/ml • Trovafloxacin: 500, 200, 100, 50, 25, 12.5, 6.25 µg/ml • Fialuridine: 200, 100, 50, 25, 12.5, 6.25, 3.15 µg/ml
(§3) Viability of the treated cultures was determined using the CellTiter-Glo® assay (Thermo Fisher, Ireland) as per the manufacturer’s protocol. Culture medium alone with CellTiter-Glo® reagent was used as a blank control and subtracted from all sample values. Cell viability was calculated as a percentage of untreated vehicle control samples. A dose-dependent response curve was plotted, and estimations were made about what concentration of drug would cause a 50% reduction in cell viability (IC50 value). Experiments were run in triplicate (n = 3).
(§4) Spheroids and HepG2 monolayers were treated with varying concentrations of four common hepatotoxic compounds, namely acetaminophen, diclofenac, fialuridine and trovafloxacin. Following a protocol detailed in Gaskell et al., a 4-day repeat-dosing regimen was used to expose 3D spheroids, i.e. spheroids were cultured for 3 days before being treated with hepatotoxic compounds for 2 days, before doing is repeated again on day 5. Spheroids then remained in culture untouched until ATP quantification assay was undertaken on day 7. […] Each of the four chosen compounds was more toxic in 3D spheroids than in 2D monocultures, although differences were not statistically significant. The concentration causing a 50% reduction in cell viability (IC50) was estimated for each drug tested from the graphs, and is reported in Table 7. A comparison to data extracted from the scientific literature is also reported.

HepG2 spheroids = assay: Sensitivity to hepatotoxins, CellTiter-Glo ATP viability, 3D spheroids; assay type: cell-based; settings: Homo sapiens, 4-day repeat dosing (day 3 and day 5), readout day 7, estimated from graphs
Protocol: as §1, §2, §3, §4

[1] = tested on: HepG2 cells (2D monocultures); assay: NBM exposure, LDH cytotoxicity assay, 2D monocultures; assay type: cell-based, Human; settings: 125 µM, 24 h
Protocol: Stock NBM suspensions were vortexed and appropriate dilutions made in cell culture medium. For NBM exposures, briefly, cell culture medium was removed from the wells of culture plates and wells washed with pre-warmed PBS. For adenosine 5′-triphosphate (ATP) quantification and lactate dehydrogenase (LDH) assay, 100 µl of each NBM concentration diluted in culture medium was added to each well for three incubation/exposure timepoints, 24, 48 and 72 h.
The LDH assay is a cytotoxicity assay which is used to assess the level of plasma membrane damage in a cell population. […] LDH release in the supernatants (an indirect measure of cytotoxicity responses) was assessed using the Thermo Scientific Pierce LDH Cytotoxicity Assay Kit (Fisher Scientific, Ireland), following the manufacturers’ protocols. […] Absorbance values at wavelengths (λ) equal to 490 and 680 nm were read using an Epoch microplate reader (Biotek, Mason Technologies, Ireland). The LDH activity was calculated using Eq. (1), whereas the percentage (%) cytotoxicity was extrapolated from Eq. (2).1 LDHactivity=Absorbanceλ=490nm-Absorbanceλ=680nm 2 Cytotoxicity%=LDHactivityTreatedculture-LDHactivityNT/LDHactivityPT-LDHactivityNT […]

SMILES | IC50 (HepG2 2D monolayer) [µM] | IC50 (HepG2 spheroids) [µM] | Maximal cell death [1] [%]
CC(=O)Nc1ccc(O)cc1 [Acetaminophen, acetaminophen] | > 10000 | > 8000 | –
O=C(O)Cc1ccccc1Nc1c(Cl)cccc1Cl [Diclofenac, diclofenac] | > 400 | > 250 | –
O=c1[nH]c(=O)n([C@@H]2O[C@H](CO)[C@@H](O)[C@@H]2F)cc1I [Fialuridine, fialuridine] | > 200 | > 200 | –
N[C@@H]1[C@H]2CN(c3nc4c(cc3F)c(=O)c(C(=O)O)cn4-c3ccc(F)cc3F)C[C@@H]12 [Trovafloxacin, trovafloxacin] | > 400 | > 100 | –
CC(C)[C@@H]1NC(=O)[C@H](C)OC(=O)[C@@H](C(C)C)NC(=O)[C@@H](C(C)C)OC(=O)[C@H](C(C)C)NC(=O)[C@H](C)OC(=O)[C@@H](C(C)C)NC(=O)[C@@H](C(C)C)OC(=O)[C@H](C(C)C)NC(=O)[C@H](C)OC(=O)[C@@H](C(C)C)NC(=O)[C@@H](C(C)C)OC1=O [valinomycin] | – | – | < 50
